Tests used:
Assay type in all cases: in vivo
[1] = system: Italian ryegrass (Lolium multiflorum); assay: Test A preemergence, visual plant response rating; conditions: for Ryegrass, Italian plant response rating: 125 g ai/ha, preemergence, 0 to 100 scale, 0 no effect, 100 complete control; for Ryegrass, Italian plant response rating (0 to 100 scale): 500 g ai/ha Preemergence, approx. 10 days
In short: (§1)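 Ratings 0–100 (100 = complete control), visual, vs untreated controls at ~10 days. Application pre- or postemergence; solvent mixture with surfactant; loam/sand medium.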

[2] = system: barnyardgrass (Echinochloa crus-galli); assay: Test A preemergence, visual plant response rating; conditions: for Barnyardgrass plant response rating: 125 g ai/ha, preemergence, 0 to 100 scale, 0 no effect, 100 complete control; for Barnyardgrass plant response rating (0 to 100 scale): 500 g ai/ha Preemergence, approx. 10 days
In short: as §1

[3] = system: foxtail, giant (giant foxtail, Setaria faberii); assay: Test A preemergence, visual plant response rating; conditions: for Foxtail, Giant plant response rating: 125 g ai/ha, preemergence, 0 to 100 scale, 0 no effect, 100 complete control; for Foxtail, Giant plant response rating (0 to 100 scale): 500 g ai/ha Preemergence, approx. 10 days
In short: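 Greenhouse pot test in loam–sand soil mix: compound in a surfactant-containing non-phytotoxic solvent applied preemergence (directed soil spray) or postemergence (one- to two-leaf plants, 2–10 cm). Injury scored visually after ~10 days, 0–100.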

kochia (Kochia scoparia) [4] = assay: Test A preemergence, visual plant response rating; conditions: for Kochia plant response rating: 125 g ai/ha, preemergence, 0 to 100 scale, 0 no effect, 100 complete control; for Kochia plant response rating (0 to 100 scale): 500 g ai/ha Preemergence, approx. 10 days
In short: as §1

[5] = system: pigweed (Amaranthus retroflexus); assay: Test A preemergence, visual plant response rating; conditions: for Pigweed plant response rating: 125 g ai/ha, preemergence, 0 to 100 scale, 0 no effect, 100 complete control; for Pigweed plant response rating (0 to 100 scale): 500 g ai/ha Preemergence, approx. 10 days
In short: as §1

[6] = system: ragweed (common ragweed, Ambrosia elatior); assay: Test A preemergence, visual plant response rating; conditions: for Ragweed plant response rating: 125 g ai/ha, preemergence, 0 to 100 scale, 0 no effect, 100 complete control; for Ragweed plant response rating (0 to 100 scale): 500 g ai/ha Preemergence, approx. 10 days
In short: as §1

[7] = system: Italian ryegrass (Lolium multiflorum); assay: Test A postemergence, visual plant response rating
Excerpt: (§2) Seeds of plant species selected from barnyardgrass (Echinochloa crus-galli), kochia (Kochia scoparia), ragweed (common ragweed, Ambrosia elatior), Italian ryegrass (Lolium multiflorum), foxtail, giant (giant foxtail, Setaria faberii), foxtail, green (green foxtail, Setaria viridis), and pigweed (Amaranthus retroflexus) were planted into a blend of loam soil and sand and treated preemergence with a directed soil spray using test chemicals formulated in a non-phytotoxic solvent mixture which included a surfactant.
(§3) At the same time, plants selected from these weed species and also wheat (Triticum aestivum), corn (Zea mays), blackgrass (Alopecurus myosuroides), and galium (catchweed bedstraw, Galium aparine) were planted in pots containing the same blend of loam soil and sand and treated with postemergence applications of test chemicals formulated in the same manner. Plants ranged in height from 2 to 10 cm and were in the one- to two-leaf stage for the postemergence treatment. Treated plants and untreated controls were maintained in a greenhouse for approximately 10 days, after which time all treated plants were compared to untreated controls and visually evaluated for injury. Plant response ratings, summarized in Table A, are based on a 0 to 100 scale where 0 is no effect and 100 is complete control. A dash (-) response means no test result.

[8] = system: barnyardgrass (Echinochloa crus-galli); assay: Test A postemergence, visual plant response rating; conditions: for Barnyardgrass plant response rating (0 to 100 scale): 500 g ai/ha, postemergence, 0 is no effect, 100 is complete control; for Barnyardgrass plant response rating: Postemergence, 125 g ai/ha, 0 to 100 scale (0 no effect, 100 complete control)
Excerpt: as §2, §3

[9] = system: blackgrass (Alopecurus myosuroides); assay: Test A postemergence, visual plant response rating; conditions: for Blackgrass plant response rating (0 to 100 scale): 500 g ai/ha, postemergence, 0 is no effect, 100 is complete control; for Blackgrass plant response rating: Postemergence, 125 g ai/ha, 0 to 100 scale (0 no effect, 100 complete control)
Excerpt: as §2, §3

corn (Zea mays) = assay: Test A postemergence, visual plant response rating; conditions: for Corn plant response rating (0 to 100 scale): 500 g ai/ha, postemergence, 0 is no effect, 100 is complete control; for Corn plant response rating: Postemergence, 125 g ai/ha, 0 to 100 scale (0 no effect, 100 complete control)
Excerpt: as §2, §3

[10] = system: foxtail, giant (giant foxtail, Setaria faberii); assay: Test A postemergence, visual plant response rating; conditions: for Foxtail, Giant plant response rating (0 to 100 scale): 500 g ai/ha, postemergence, 0 is no effect, 100 is complete control; for Foxtail, Giant plant response rating: Postemergence, 125 g ai/ha, 0 to 100 scale (0 no effect, 100 complete control)
Excerpt: as §2, §3

[11] = system: galium (catchweed bedstraw, Galium aparine); assay: Test A postemergence, visual plant response rating; conditions: for Galium plant response rating (0 to 100 scale): 500 g ai/ha, postemergence, 0 is no effect, 100 is complete control; for Galium plant response rating: Postemergence, 125 g ai/ha, 0 to 100 scale (0 no effect, 100 complete control)
Excerpt: as §2, §3

kochia (Kochia scoparia) [12] = assay: Test A postemergence, visual plant response rating; conditions: for Kochia plant response rating (0 to 100 scale): 500 g ai/ha, postemergence, 0 is no effect, 100 is complete control; for Kochia plant response rating: Postemergence, 125 g ai/ha, 0 to 100 scale (0 no effect, 100 complete control)
Excerpt: as §2, §3

[13] = system: pigweed (Amaranthus retroflexus); assay: Test A postemergence, visual plant response rating; conditions: for Pigweed plant response rating (0 to 100 scale): 500 g ai/ha, postemergence, 0 is no effect, 100 is complete control; for Pigweed plant response rating: Postemergence, 125 g ai/ha, 0 to 100 scale (0 no effect, 100 complete control)
Excerpt: as §2, §3

[14] = system: ragweed (common ragweed, Ambrosia elatior); assay: Test A postemergence, visual plant response rating; conditions: for Ragweed plant response rating (0 to 100 scale): 500 g ai/ha, postemergence, 0 is no effect, 100 is complete control; for Ragweed plant response rating: Postemergence, 125 g ai/ha, 0 to 100 scale (0 no effect, 100 complete control)
Excerpt: as §2, §3

[15] = system: wheat (Triticum aestivum); assay: Test A postemergence, visual plant response rating; conditions: for Wheat plant response rating: 0 to 100 scale (0 no effect, 100 complete control)
Excerpt: as §2, §3

[16] = system: barnyardgrass (Echinochloa crus-galli); assay: Test B flooded paddy test, visual plant response rating; conditions: 250 g ai/ha, Flood, applied to paddy water, 2-leaf stage, evaluated after 13 to 15 days
In short: (§4)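 Plants were raised to the 2-leaf stage, then pots were flooded to 3 cm above the soil and test compound was applied directly into the paddy water. Water depth was held for the whole test; after 13 to 15 days in a greenhouse, responses were scored visually against controls.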

[17] = system: ducksalad (Heteranhera limosa); assay: as above; conditions: 250 g ai/ha, Flood, applied to paddy water, 2-leaf stage, evaluated after 13 to 15 days
In short: as §4

rice (Oryza sativa) = assay: as above; conditions: 250 g ai/ha, Flood, applied to paddy water, 2-leaf stage, evaluated after 13 to 15 days
In short: as §4

[18] = system: sedge, umbrella (small-flower umbrella sedge, Cyperus difformis); assay: as above; conditions: 250 g ai/ha, Flood, applied to paddy water, 2-leaf stage, evaluated after 13 to 15 days
In short: as §4

[19] = 500 g ai/ha, postemergence, 0 is no effect, 100 is complete control

Structure (SMILES) | Ryegrass, Italian plant response rating [1] | Ryegrass, Italian plant response rating (0 to 100 scale) [1] | Barnyardgrass plant response rating [2] | Barnyardgrass plant response rating (0 to 100 scale) [2] | Foxtail, Giant plant response rating [3] | Foxtail, Giant plant response rating (0 to 100 scale) [3] | Kochia plant response rating (kochia (Kochia scoparia) [4]) | Kochia plant response rating (0 to 100 scale) (kochia (Kochia scoparia) [4]) | Pigweed plant response rating [5] | Pigweed plant response rating (0 to 100 scale) [5] | Ragweed plant response rating [6] | Ragweed plant response rating (0 to 100 scale) [6] | Ryegrass, Italian plant response rating (0 to 100 scale) [7, 19] | Barnyardgrass plant response rating (0 to 100 scale) [8] | Barnyardgrass plant response rating [8] | Blackgrass plant response rating (0 to 100 scale) [9] | Blackgrass plant response rating [9] | Corn plant response rating (0 to 100 scale) (corn (Zea mays)) | Corn plant response rating (corn (Zea mays)) | Foxtail, Giant plant response rating (0 to 100 scale) [10] | other results
CON=C(c1ccc(C)s1)c1c(O)c(C)nn(C)c1=O (mixture of isomers) [Compound 144] | 0 | 0 | 0 | 0 | 0 | 0 | 0 | 0 | 0 | 0 | 0 | 0 | 0 | 0 | 0 | 0 | 0 | 0 | 0 | 0 | Ryegrass, Italian plant response rating (0 to 100 scale) ([7]; Postemergence, rate not given, approx. 10 days): 0; Foxtail, Giant plant response rating [10]: 0; Galium plant response rating (0 to 100 scale) [11]: 30; Galium plant response rating [11]: 0; Kochia plant response rating (0 to 100 scale) (kochia (Kochia scoparia) [12]): 0; Kochia plant response rating (kochia (Kochia scoparia) [12]): 0; Pigweed plant response rating (0 to 100 scale) [13]: 10; Pigweed plant response rating [13]: 0; Ragweed plant response rating (0 to 100 scale) [14]: 30; Ragweed plant response rating [14]: 0; Wheat plant response rating ([15]; Postemergence, 500 g ai/ha): 0; Wheat plant response rating (0 to 100 scale) ([15]; Postemergence, approx. 10 days): 0; Plant response rating, Barnyardgrass (0 to 100 scale, 0 is no effect, 100 is complete control) [16]: 0; Plant response rating, Ducksalad (0 to 100 scale, 0 is no effect, 100 is complete control) [17]: 0; Plant response rating, Rice (0 to 100 scale, 0 is no effect, 100 is complete control) (rice (Oryza sativa)): 0; Plant response rating, Sedge, Umbrella (0 to 100 scale, 0 is no effect, 100 is complete control) [18]: 0
CON=C(c1c(O)c(C)nn(C)c1=O)c1csc2ccccc12 (single isomer, unassigned) [Compound 45] | 0 | 10 | 0 | 0 | 0 | 0 | 0 | 50 | 0 | 0 | 10 | 40 | 20 | 0 | 0 | 20 | 0 | 0 | 0 | 0 | Ryegrass, Italian plant response rating ([7]; Postemergence, 125 g ai/ha, 0 to 100 scale (0 no effect, 100 complete control)): 0; Foxtail, Giant plant response rating [10]: 0; Galium plant response rating (0 to 100 scale) [11]: 70; Galium plant response rating [11]: 50; Kochia plant response rating (0 to 100 scale) (kochia (Kochia scoparia) [12]): 0; Kochia plant response rating (kochia (Kochia scoparia) [12]): 0; Pigweed plant response rating (0 to 100 scale) [13]: 10; Pigweed plant response rating [13]: 0; Ragweed plant response rating (0 to 100 scale) [14]: 70; Ragweed plant response rating [14]: 30; Wheat plant response rating (0 to 100 scale) [15, 19]: 0; Wheat plant response rating ([15]; Postemergence, 125 g ai/ha): 0; Plant response rating, Barnyardgrass (0 to 100 scale, 0 is no effect, 100 is complete control) [16]: 0; Plant response rating, Ducksalad (0 to 100 scale, 0 is no effect, 100 is complete control) [17]: 0; Plant response rating, Rice (0 to 100 scale, 0 is no effect, 100 is complete control) (rice (Oryza sativa)): 0; Plant response rating, Sedge, Umbrella (0 to 100 scale, 0 is no effect, 100 is complete control) [18]: 0

— patent publication US20210045385A1, “PYRIDAZINONE-SUBSTITUTED KETOXIMES AS HERBICIDES” (FMC Corporation, priority 2018, published 2021)
